Assay results reported in patent publication US10280166B2, “2-(1H-indazol-3-yl)-3H-imidazo[4,5-B]pyridine and therapeutic uses thereof” (Samumed, LLC, priority 2014, dated 2019).

How the values were obtained:
Format in all cases: cell-based
[1] = test system: primary human fibroblasts derived from IPF patients (LL29 cells); assay: Inhibition of fibrosis (αSMA) in TGF-β1 treated primary human fibroblasts from IPF patients; conditions: Fibroblast, 96 h, TGF-β1 20 ng/mL, 4 days, % αSMA positive cells
How it was run: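 IPF patient-derived LL29 lung fibroblasts in 1% FBS were treated with compound (11 points, 10 μM to 1.87 nM, 0.1% DMSO) and then 20 ng/mL TGF-β1 for 4 days at 37° C. Fraction of SYTOX-negative cells positive for αSMA was quantified by immunofluorescence imaging and normalized to TGF-β1 controls. EC50 came from non-linear regression over triplicate wells.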

[2] = test system: primary human mesenchymal stem cells (hMSCs); assay: Chondrogenesis induction screen in primary human mesenchymal stem cells; conditions: 6 days, chondrogenic nodules, dose range 10-2700 nM
Procedure: The above synthesized compounds were screened using primary human mesenchymal stem cells (hMSCs) to determine their ability to induce chondrogenesis (process by which cartilage is developed).
Primary human mesenchymal stem cells (hMSCs) were purchased from Lonza (Walkersville, Md.) and expanded in Mesenchymal Stem Cell Growth Media (Lonza). Cells between passage 3 and 6 were used for the experiments.
Each compound was dissolved in DMSO as a 10 mM stock and used to prepare compound source plates. Serial dilution (1:3, 6-point dose-response curves from 2700 nM to 10 nM) and compound transfer was performed using the ECHO 550 (Labcyte, Sunnyvale, Calif.) into 96-well clear bottom assay plates (Greiner Bio-One) with appropriate DMSO backfill for a final DMSO concentration of 0.03%. hMSCs were plated at 20,000 cells/well in 250 μL/well Incomplete Chondrogenic Induction Medium (Lonza; DMEM, dexamethasone, ascorbate, insulin-transferrin-selenium [ITS supplement], gentamycin-amphotericin [GA-1000], sodium pyruvate, proline and L-glutamine). TGF-β3 (10 ng/mL) was used as a positive control for differentiation while negative control wells were treated with 75 nL DMSO for normalization and calculating EC50 values. Cells were incubated at 37° C. and 5% CO2 for 6 days. To image chondrogenic nodules, the cells were fixed using 4% formaldehyde (Electron Microscopy Sciences), and stained with 2 μg/mL Rhodamine B (Sigma-Aldrich) and 20 μM Nile Red (Sigma-Aldrich) [Johnson K., et.al, A Stem Cell—Based Approach to Cartilage Repair, Science, (2012), 336(6082), 717-721]. The nodules imaged (4 images per well at 4× magnification) by excitation at 531 nm and emission at 625 nm and quantified using the CellInsight CX5 (Thermo Scientific). Number of nodules in each well was normalized to the average of 3 DMSO treated wells on the same plate using Excel (Microsoft Inc.). The normalized averages (fold change over DMSO) of 3 replicate wells for each compound concentration were calculated. Due to solubility limitations of some of the compounds, curve fitting was incomplete leading to inaccurate EC50 determinations.
Using TGF-β3 as a positive control, the concentration of test compounds required to induce equivalent levels of chondrogenesis is reported. In addition, the maximum activity of each compound and the respective dose that each compound reached maximum chondrogenesis activity is reported.

[3] = test system: Wnt activity (SW480 colon carcinoma cells stably expressing the Sp5-Luc reporter gene); assay: Sp5-Luc reporter gene screening assay for Wnt activity in SW480 cells; conditions: Homo sapiens, 42 h incubation, luminescence
How it was run: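 SW480 cells stably carrying an Sp5 promoter (eight TCF/LEF sites)-luciferase reporter were plated overnight in 10% FCS medium. BrightGlo luminescence was normalised to DMSO wells, and IC50 was obtained by four-parameter fit.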

Which EC50 [1] does the source give for `Cc1cn(-c2ccnc3[nH]c(-c4n[nH]c5ccc(-c6cncc(NC(=O)CC(C)C)c6)cc45)nc23)cn1` [Compound 184, 3-Methyl-N-(5-(3-(7-(4-methyl-1H-imidazol-1-yl)-3H-imidazo[4,5-b]pyridin-2-yl)-1H-indazol-5-yl)pyridin-3-yl)butanamide] here?
Its EC50 is 0.142 nM.

And the “Conc (nM) of Max. activity” value [2]?
Its value is 300 nM.

And the IC50 [3]?
Its IC50 is 2.3 nM.

Which results are given for `CCCCC(=O)Nc1cncc(-c2ccc3[nH]nc(-c4nc5c(-c6ccccn6)ccnc5[nH]4)c3c2)c1` [Compound 148, N-(5-(3-(7-(Pyridin-2-yl)-3H-imidazo[4,5-b]pyridin-2-yl)-1H-indazol-5-yl)pyridin-3-yl)pentanamide]?
EC50 [1]: 0.085 nM; Conc (nM) of Max. activity [2]: 100 nM; IC50 [3]: 8.1 nM
